Measurements: ChEMBL document CHEMBL4265965, “Dichloroacetophenones targeting at pyruvate dehydrogenase kinase 1 with improved selectivity and antiproliferative activity: Synthesis and structure-activity relationships” (Bioorg Med Chem Lett, 2018)
Calls of active or inactive are those of the source. No cut-off for these calls is given here.

Columns and labels:
NCI-H1975 [1] = assay: Antiproliferative activity against human NCI-H1975 cells assessed as inhibition of cell proliferation at 6 uM after 72 hrs by MTT assay relative to control; assay type: functional; conditions: for inhibition at 6 µM: NCI-H1975, 72 h
Sus scrofa = species: Sus scrofa; assay: Inhibition of porcine PDK1 assessed as activation of pyruvate dehydrogenase complex at 1 uM measured after 3 mins
NCI-H1975 [2] = assay: Antiproliferative activity against human NCI-H1975 cells assessed as inhibition of cell proliferation at 2 uM after 72 hrs by MTT assay relative to control; assay type: functional; conditions: for inhibition at 2 µM: NCI-H1975, 72 h
A549 [3] = assay: Antiproliferative activity against human A549 cells assessed as inhibition of cell proliferation at 2 uM after 72 hrs by MTT assay relative to control; assay type: functional; conditions: for inhibition at 2 µM: A549, 72 h
[4] = biological target: [Pyruvate dehydrogenase (acetyl-transferring)] kinase isozyme 1, mitochondrial (Homo sapiens, UniProt Q15118); assay: Inhibition of recombinant human N-terminal His6/Sumo-tagged PDK1 (29 to 436 residues) expressed in Escherichia coli BL21 at 1 uM by kinase-glo luminescence assay relative to control
A549 [5] = assay: Antiproliferative activity against human A549 cells assessed as inhibition of cell proliferation at 6 uM after 72 hrs by MTT assay relative to control; assay type: functional; conditions: for inhibition at 6 µM: A549, 72 h
NCI-H1650 [6] = assay: Antiproliferative activity against human NCI-H1650 cells assessed as inhibition of cell proliferation at 6 uM after 72 hrs by MTT assay relative to control; assay type: functional; conditions: for inhibition at 6 µM: NCI-H1650, 72 h
NCI-H1975 [7] = assay: Antiproliferative activity against human NCI-H1975 cells assessed as inhibition of cell proliferation at 12 uM after 72 hrs by MTT assay relative to control; assay type: functional; conditions: for inhibition at 12 µM: NCI-H1975, 72 h
A549 [8] = assay: Antiproliferative activity against human A549 cells assessed as inhibition of cell proliferation at 12 uM after 72 hrs by MTT assay relative to control; assay type: functional; conditions: for inhibition at 12 µM: A549, 72 h
NCI-H1650 [9] = assay: Antiproliferative activity against human NCI-H1650 cells assessed as inhibition of cell proliferation at 12 uM after 72 hrs by MTT assay relative to control; assay type: functional; conditions: for inhibition at 12 µM: NCI-H1650, 72 h
NCI-H1650 [10] = assay: Antiproliferative activity against human NCI-H1650 cells assessed as inhibition of cell proliferation at 2 uM after 72 hrs by MTT assay relative to control; assay type: functional; conditions: for inhibition at 2 µM: NCI-H1650, 72 h

Row | inhibition (Sus scrofa) | inhibition [4] | Structure (SMILES) | inhibition (NCI-H1975 [1]) | inhibition (NCI-H1975 [2]) | inhibition (A549 [3]) | inhibition (A549 [5]) | inhibition (NCI-H1650 [6]) | inhibition (NCI-H1975 [7]) | inhibition (A549 [8]) | inhibition (NCI-H1650 [9]) | inhibition (NCI-H1650 [10]) | inhibition at 6 µM (NCI-H1975 [1]) [%] | inhibition at 2 µM (NCI-H1975 [2]) [%] | inhibition at 2 µM (A549 [3]) [%] | inhibition at 6 µM (A549 [5]) [%] | inhibition at 6 µM (NCI-H1650 [6]) [%] | inhibition at 12 µM (NCI-H1975 [7]) [%] | inhibition at 12 µM (A549 [8]) [%] | inhibition at 12 µM (NCI-H1650 [9]) [%] | inhibition at 2 µM (NCI-H1650 [10]) [%]
1 | Active | Active | CCCCCCOc1ccc(C(=O)C(Cl)Cl)cc1[N+](=O)[O-] |  |  |  |  |  |  |  |  |  | 51.7 | 5.7 | 1.2 | 33.4 | 53.1 | 98.3 | 83.1 | 99.7 | 3.6
2 | Active | Active | COc1ccc(C(=O)C(Cl)Cl)cc1[N+](=O)[O-] |  |  |  |  |  |  |  |  |  | 89.4 | 22.3 | 17.7 | 46.7 | 75.7 | 97.4 | 81.8 | 97.2 | 30
3 | Active | Active | CC(C)Oc1ccc(C(=O)C(Cl)(Cl)Cl)cc1[N+](=O)[O-] | inactive | inactive | inactive | inactive | inactive |  |  |  | inactive |  |  |  |  |  | 35.6 | 15.9 | 24.7 | 
4 | Active | Active | O=C(c1ccc(OCCBr)c([N+](=O)[O-])c1)C(Cl)Cl |  |  |  |  | inactive |  |  |  | inactive | 53.2 | 15.2 | 9.5 | 24.5 |  | 80 | 63.7 | 23 | 
5 | Active | Active | O=C(c1ccc(OCCCBr)c([N+](=O)[O-])c1)C(Cl)Cl |  |  |  |  |  |  |  |  |  | 94.5 | 60.8 | 26.8 | 84.3 | 48.1 | 99 | 97.7 | 74.6 | 11.5
6 | Active | Active | CCCCOc1ccc(C(=O)C(Cl)Cl)cc1[N+](=O)[O-] |  |  |  |  |  |  |  |  | inactive | 96.3 | 55.7 | 28.3 | 79.9 | 28.8 | 98.9 | 95.2 | 63.1 | 
7 | Active | Active | CCCOc1ccc(C(=O)C(Cl)Cl)cc1[N+](=O)[O-] |  |  | inactive |  |  |  |  |  |  | 37.8 | 3.4 |  | 19.5 | 38 | 91.6 | 68.4 | 99.9 | 7.6

Row | Structure (SMILES) | inhibition (Sus scrofa) | inhibition [4] | inhibition (NCI-H1975 [1]) | inhibition (NCI-H1975 [2]) | inhibition (A549 [3]) | inhibition (A549 [5]) | inhibition (NCI-H1650 [6]) | inhibition (NCI-H1975 [7]) | inhibition (A549 [8]) | inhibition (NCI-H1650 [9]) | inhibition (NCI-H1650 [10]) | inhibition at 6 µM (NCI-H1975 [1]) [%] | inhibition at 2 µM (NCI-H1975 [2]) [%] | inhibition at 2 µM (A549 [3]) [%] | inhibition at 6 µM (A549 [5]) [%] | inhibition at 6 µM (NCI-H1650 [6]) [%] | inhibition at 12 µM (NCI-H1975 [7]) [%] | inhibition at 12 µM (A549 [8]) [%] | inhibition at 12 µM (NCI-H1650 [9]) [%] | inhibition at 2 µM (NCI-H1650 [10]) [%]
8 | O=C(Oc1ccccc1)C(Cl)Cl | inactive | inactive | inactive | inactive | inactive | inactive | inactive | inactive | inactive | inactive | inactive |  |  |  |  |  |  |  |  | 
9 | O=C(c1ccco1)C(Cl)Cl | 2.5% | inactive |  |  |  |  |  |  |  |  |  | 58.6 | 31.2 | 8.9 | 35.8 | 48.9 | 94.5 | 79.8 | 85.7 | 21.4
10 | O=C(c1cccnc1)C(Cl)Cl | inactive | inactive |  | inactive | inactive | inactive |  |  | inactive |  | inactive | 9.3 |  |  |  | 29.1 | 52 |  | 56.5 | 
